We go through 61 molecules from patent US7122547B1, “Anthranilic acid amides and the use thereof as medicaments” (Schering AG, priority 1998, dated 2006).

One experiment has as its target VEGFR II (KDR) (Homo sapiens, UniProt P35968). Description: Inhibition of KDR kinase activity (33P-ATP, poly-(Glu4Tyr) phosphocellulose filter assay). It counts as biochemical. Conditions: 10 minutes at room temperature, KH = keine Hemmung = No inhibition. Here is the method:
(§1) • Stock solutions • Stock solution A: 3 mmol of ATP in water, pH 7.0 (−70° C.) • Stock solution B: g-0.33P-ATP 1 mCi/100 μl • Stock solution C: poly-(Glu4Tyr) 10 mg/ml in water Solution for Dilutions • Substrate solvent: 10 mmol of DTT, 10 mmol of manganese chloride, 100 mmol of magnesium chloride • Enzyme solution: 120 mmol of tris/HCl, pH 7.5, 10 μm of sodium vanadium oxide Sample Application 1
(§2) Inhibition of the KDR- and FLT-1 kinase activity in the presence of the compounds according to the invention
(§3) It is thoroughly mixed and incubated for 10 minutes at room temperature. Then, 10 μl of stop solution (250 mmol of EDTA, pH 7.0) is added, mixed, and 10 μl of the solution is transferred to a P 81 phosphocellulose filter. Then, it is washed several times in 0.01 M phosphoric acid. The filter paper is dried, coated with Meltilex and measured in a microbeta counter.

The next experiment addresses VEGFR I (FLT) (Homo sapiens, UniProt P17948). In words: Inhibition of FLT-1 kinase activity (33P-ATP, poly-(Glu4Tyr) phosphocellulose filter assay). It counts as biochemical. Particulars: 10 minutes at room temperature, KH = keine Hemmung = No inhibition. Here is the method: as §1, §2, §3

Chain of VEGFR II (KDR) (P35968 20-1356, species assumed): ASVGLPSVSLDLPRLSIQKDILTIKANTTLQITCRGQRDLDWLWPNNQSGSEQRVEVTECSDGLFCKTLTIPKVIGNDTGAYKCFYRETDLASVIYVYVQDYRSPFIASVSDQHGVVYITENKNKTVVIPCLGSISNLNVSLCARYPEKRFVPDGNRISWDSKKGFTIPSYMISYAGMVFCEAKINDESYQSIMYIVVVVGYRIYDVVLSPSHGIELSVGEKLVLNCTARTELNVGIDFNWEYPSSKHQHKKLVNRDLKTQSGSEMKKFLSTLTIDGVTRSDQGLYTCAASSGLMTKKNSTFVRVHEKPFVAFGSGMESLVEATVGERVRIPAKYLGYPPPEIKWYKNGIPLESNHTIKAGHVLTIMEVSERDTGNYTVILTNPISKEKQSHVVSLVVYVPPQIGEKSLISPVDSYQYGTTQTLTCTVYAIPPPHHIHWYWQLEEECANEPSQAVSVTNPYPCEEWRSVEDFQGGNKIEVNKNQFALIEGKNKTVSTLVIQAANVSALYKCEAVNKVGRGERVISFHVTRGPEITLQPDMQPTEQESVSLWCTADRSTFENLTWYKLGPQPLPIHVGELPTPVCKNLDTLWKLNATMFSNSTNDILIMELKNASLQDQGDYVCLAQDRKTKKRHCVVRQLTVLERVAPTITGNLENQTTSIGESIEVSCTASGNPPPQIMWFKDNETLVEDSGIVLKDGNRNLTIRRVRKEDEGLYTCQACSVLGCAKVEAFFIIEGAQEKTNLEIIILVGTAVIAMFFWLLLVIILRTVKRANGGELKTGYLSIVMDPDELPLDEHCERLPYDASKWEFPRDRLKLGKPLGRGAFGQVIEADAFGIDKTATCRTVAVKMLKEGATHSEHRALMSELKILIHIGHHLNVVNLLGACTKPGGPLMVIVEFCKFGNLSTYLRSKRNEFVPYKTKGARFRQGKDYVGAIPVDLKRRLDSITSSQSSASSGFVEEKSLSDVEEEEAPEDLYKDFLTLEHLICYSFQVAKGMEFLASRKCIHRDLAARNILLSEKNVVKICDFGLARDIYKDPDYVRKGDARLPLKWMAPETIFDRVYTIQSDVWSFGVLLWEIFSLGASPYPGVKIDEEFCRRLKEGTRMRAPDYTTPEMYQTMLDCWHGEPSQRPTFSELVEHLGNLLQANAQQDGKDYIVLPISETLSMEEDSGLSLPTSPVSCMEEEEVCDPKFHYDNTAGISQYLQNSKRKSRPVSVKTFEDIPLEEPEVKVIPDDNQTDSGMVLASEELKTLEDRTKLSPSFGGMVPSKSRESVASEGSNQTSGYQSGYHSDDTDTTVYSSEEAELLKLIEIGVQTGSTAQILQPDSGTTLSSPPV
Chain of VEGFR I (FLT) (P17948 27-1338, species assumed): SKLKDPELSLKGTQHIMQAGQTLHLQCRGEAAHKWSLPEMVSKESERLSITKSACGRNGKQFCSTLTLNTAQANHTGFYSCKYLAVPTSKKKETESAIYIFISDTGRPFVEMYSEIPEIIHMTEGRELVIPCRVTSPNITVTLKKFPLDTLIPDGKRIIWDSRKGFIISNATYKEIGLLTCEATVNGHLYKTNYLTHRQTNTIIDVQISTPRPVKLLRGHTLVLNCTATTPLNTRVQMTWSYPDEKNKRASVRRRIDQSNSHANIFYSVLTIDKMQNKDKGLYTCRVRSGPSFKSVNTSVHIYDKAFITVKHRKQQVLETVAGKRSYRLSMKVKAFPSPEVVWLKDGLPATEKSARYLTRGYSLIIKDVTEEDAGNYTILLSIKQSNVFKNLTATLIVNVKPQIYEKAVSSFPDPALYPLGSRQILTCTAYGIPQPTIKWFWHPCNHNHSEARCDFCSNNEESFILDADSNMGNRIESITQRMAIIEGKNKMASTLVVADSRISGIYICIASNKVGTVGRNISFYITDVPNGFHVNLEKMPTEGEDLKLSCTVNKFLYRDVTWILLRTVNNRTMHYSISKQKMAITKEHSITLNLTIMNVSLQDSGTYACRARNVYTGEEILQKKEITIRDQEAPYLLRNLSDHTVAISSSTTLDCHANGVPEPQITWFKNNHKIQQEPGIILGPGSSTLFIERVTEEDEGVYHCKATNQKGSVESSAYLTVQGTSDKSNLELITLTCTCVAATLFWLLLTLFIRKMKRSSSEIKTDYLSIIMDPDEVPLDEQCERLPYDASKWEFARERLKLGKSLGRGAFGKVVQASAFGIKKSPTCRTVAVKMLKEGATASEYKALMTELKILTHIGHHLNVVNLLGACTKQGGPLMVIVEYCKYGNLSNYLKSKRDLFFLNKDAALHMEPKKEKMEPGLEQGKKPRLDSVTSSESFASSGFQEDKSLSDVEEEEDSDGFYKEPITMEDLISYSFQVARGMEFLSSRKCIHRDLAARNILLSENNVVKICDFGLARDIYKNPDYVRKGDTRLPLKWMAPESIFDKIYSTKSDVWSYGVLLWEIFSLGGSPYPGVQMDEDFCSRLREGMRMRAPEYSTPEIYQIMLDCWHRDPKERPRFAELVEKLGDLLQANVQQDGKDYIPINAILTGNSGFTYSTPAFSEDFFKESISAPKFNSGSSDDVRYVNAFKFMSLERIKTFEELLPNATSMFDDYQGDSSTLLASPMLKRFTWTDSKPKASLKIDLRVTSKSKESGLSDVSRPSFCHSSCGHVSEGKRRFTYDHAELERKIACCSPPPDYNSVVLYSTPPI

`O=C(NCCCc1ccccc1)c1ccccc1NCc1ccncc1` [Example 2.0, N-(3-phenylprop-1-yl)-N2-(4-pyridylmethyl)-anthranilic acid amide]: the 50% inhibitory concentration (IC50) against VEGFR II (KDR) and against VEGFR I (FLT) was 0.05 µM throughout. As to `O=C(NCc1ccc(Cl)cc1)c1ccccc1NCc1ccncc1` [Example 2.1], the IC50 (usually the concentration that gives 50% inhibition) at VEGFR II (KDR) worked out at 0.3 µM; against VEGFR I (FLT), 0.01 µM. The like results for `O=C(NC1Cc2ccccc2C1)c1ccccc1NCc1ccncc1` [Example 2.2] were, in that order, 0.5 µM and 0.1 µM.

Consider `O=C(NCCc1ccc(Cl)cc1)c1ccccc1NCc1ccncc1` [Example 2.3], for which the IC50 against VEGFR II (KDR) and against VEGFR I (FLT) was 0.02 µM in each case. For the molecule `O=C(NNc1ccc(Cl)cc1)c1ccccc1NCc1ccncc1` [Example 2.4], the results for the IC50 on VEGFR II (KDR) and on VEGFR I (FLT) were 0.1 µM and 0.02 µM, respectively. Molecule `CN(NC(=O)c1ccccc1NCc1ccncc1)c1ccccc1` [Example 2.5] yielded an IC50 on VEGFR I (FLT) of 1 µM. In the case of `O=C(NCc1cccs1)c1ccccc1NCc1ccncc1` [Example 2.6], the IC50 against VEGFR II (KDR) turned out to be 2 µM; against VEGFR I (FLT) it was 0.2 µM. Taken in the same sequence, the figures for `O=C(NCCc1c[nH]c2cc(F)ccc12)c1ccccc1NCc1ccncc1` [Example 2.8] were 0.1 µM and 0.5 µM. On to `COc1cc2c(cc1OC)CC(NC(=O)c1ccccc1NCc1ccncc1)CC2` (stereo not drawn) [Example 2.9], for which the IC50 on VEGFR I (FLT) came out at 5 µM. With `O=C(NCc1ccncc1)c1ccccc1NCc1ccncc1` [Example 2.10], at VEGFR I (FLT), the IC50 came out at 3 µM. Take `O=C(NCc1cccc2ccccc12)c1ccccc1NCc1ccncc1` [Example 2.11]: the IC50 at VEGFR II (KDR) was 0.2 µM; against VEGFR I (FLT), 0.02 µM. Turning to `CC(NC(=O)c1ccccc1NCc1ccncc1)c1cccc2ccccc12` (stereo not drawn) [Example 2.12], the IC50 came out at 3 µM against VEGFR II (KDR) and 0.7 µM at VEGFR I (FLT).

`O=C(NC1CCCc2ccccc21)c1ccccc1NCc1ccncc1` (stereo not drawn) [Example 2.13]: the values for the IC50 on VEGFR II (KDR) and against VEGFR I (FLT) were 3 µM and 0.7 µM, respectively. Take `O=C(NCCCc1ccc(Cl)cc1)c1ccccc1NCc1ccncc1` [Example 2.14]: the results for the IC50 against VEGFR II (KDR) and at VEGFR I (FLT) were 0.3 µM and 0.5 µM, respectively.

`CC(NC(=O)c1ccccc1NCc1ccncc1)c1ccc(Cl)cc1` (stereo not drawn) [Example 2.15] gave an IC50 at VEGFR I (FLT) of 1 µM. Consider `CC(CNC(=O)c1ccccc1NCc1ccncc1)c1ccc(Cl)cc1` (stereo not drawn) [Example 2.16], for which the IC50 came out at 0.2 µM against VEGFR II (KDR) and 0.1 µM against VEGFR I (FLT). On to `CC(Cc1ccc(Cl)cc1)NC(=O)c1ccccc1NCc1ccncc1` (stereo not drawn) [Example 2.17], for which the figures for the concentration for half-maximal inhibition (IC50) at VEGFR II (KDR) and against VEGFR I (FLT) were 0.5 µM and 0.4 µM, respectively.

`CC(CNC(=O)c1ccccc1NCc1ccncc1)c1ccccc1` (stereo not drawn) [Example 2.18]: the figures for the IC50 on VEGFR II (KDR) and on VEGFR I (FLT) were 0.5 µM and 0.3 µM, respectively. As to `CC(C)(NC(=O)c1ccccc1NCc1ccncc1)c1ccccc1` [Example 2.19], the IC50 against VEGFR II (KDR) and at VEGFR I (FLT) was greater than 10 µM in each case. With `O=C(NC1CCc2cc(Cl)ccc21)c1ccccc1NCc1ccncc1` (stereo not drawn) [Example 2.20], the IC50 against VEGFR I (FLT) came to 4 µM.

Turning to `COc1ccc(CCNC(=O)c2ccccc2NCc2ccncc2)cc1OC` [Example 2.21], the IC50 against VEGFR II (KDR) worked out at 0.3 µM; against VEGFR I (FLT) it was 2 µM. The like results for `O=C(Nc1ccc2nsnc2c1)c1ccccc1NCc1ccncc1` [Example 2.23] were, in that order, 0.67 µM and 0.02 µM.

As to `O=C(N[C@@H]1CCCc2ccccc21)c1ccccc1NCc1ccncc1` [Example 2.24], the IC50 against VEGFR II (KDR) is greater than 1 µM; at VEGFR I (FLT) it was 0.5 µM. The like results for `O=C(Nc1cccc2ncccc12)c1ccccc1NCc1ccncc1` [Example 2.26] were, in that order, 0.2 µM and 0.2 µM. The like results for `O=C(Nc1nccc2ccccc12)c1ccccc1NCc1ccncc1` [Example 2.31] were, in that order, 0.27 µM and 0.1 µM. In the case of `O=C(Nc1ncc(Cl)cn1)c1ccccc1NCc1ccncc1` [Example 2.32], the IC50 against VEGFR II (KDR) and on VEGFR I (FLT) was 0.02 µM each time. As for `O=C(Nc1cc2ccccc2c(Nc2cc3ccccc3c(Br)n2)n1)c1ccccc1NCc1ccncc1` [Example 2.33], the results for the concentration for half-maximal inhibition (IC50) against VEGFR II (KDR) and at VEGFR I (FLT) were 2 µM and 1 µM, respectively.

For `O=C(Nc1cccc2cccnc12)c1ccccc1NCc1ccncc1` [Example 2.34], the IC50 against VEGFR II (KDR) was found to be 0.1 µM; on VEGFR I (FLT), 2 µM. Taken in the same sequence, the figures for `COc1ccc(CCNC(=O)c2ccccc2NCc2ccncc2)cc1` [Example 2.35] were 0.02 µM and 0.098 µM. `O=C(Nc1ccccn1)c1ccccc1NCc1ccncc1` [Example 2.37] yielded an IC50 on VEGFR I (FLT) of 0.2 µM. Consider `O=C(NCc1cccnc1)c1ccccc1NCc1ccncc1` [Example 2.38], for which the results for the half-inhibitory concentration (IC50) against VEGFR II (KDR) and at VEGFR I (FLT) were 0.2 µM and 7 µM, respectively. Taken in the same sequence, the figures for `O=C(Nc1ccc(Cl)cn1)c1ccccc1NCc1ccncc1` [Example 2.39] were 0.03 µM and 0.05 µM. `O=C(Nc1cccnc1)c1ccccc1NCc1ccncc1` [Example 2.40] returned an IC50 on VEGFR I (FLT) of 0.5 µM. For `O=C(Nc1nnc(C(F)(F)F)s1)c1ccccc1NCc1ccncc1` [Example 2.41], the IC50 against VEGFR II (KDR) amounted to 0.3 µM; on VEGFR I (FLT), 1 µM. For the molecule `O=C(NCc1ccc(C(F)(F)F)cc1)c1ccccc1NCc1ccncc1` [Example 2.42], the half-maximal inhibitory concentration (IC50) against VEGFR II (KDR) came to 0.1 µM; on VEGFR I (FLT) it was 0.5 µM.

As for `O=C(Nc1cc(-c2ccccc2)[nH]n1)c1ccccc1NCc1ccncc1` [Example 2.43], the IC50 against VEGFR II (KDR) was 0.05 µM; at VEGFR I (FLT), 0.02 µM. Taken in the same sequence, the figures for `O=C(NC1CCC(c2ccccc2)CC1)c1ccccc1NCc1ccncc1` (stereo not drawn) [Example 2.44] were 0.2 µM and 0.3 µM.

In the case of `O=C(N[C@H]1CCCc2ccccc21)c1ccccc1NCc1ccncc1` [Example 2.45], at VEGFR I (FLT), the IC50 turned out to be 0.1 µM. This lies in the sub-micromolar range. The molecule `O=C(NCc1nccc2ccccc12)c1ccccc1NCc1ccncc1` [Example 2.47] displayed an IC50 against VEGFR I (FLT) of 0.02 µM.

Consider `O=C(NCc1ccc2ccccc2n1)c1ccccc1NCc1ccncc1` [Example 2.48], for which the IC50 at VEGFR II (KDR) worked out at 0.5 µM; against VEGFR I (FLT) it was 0.1 µM. Turning to `O=C(Nc1ccc2c(c1)NCCC2)c1ccccc1NCc1ccncc1` [Example 2.49], the figures for the IC50 against VEGFR II (KDR) and against VEGFR I (FLT) were 0.05 µM and 0.08 µM, respectively. For the molecule `O=C(Nc1ccc2ncccc2c1)c1ccccc1NCc1ccncc1` [Example 2.52], inhibition on VEGFR I (FLT) was half-maximal at 0.05 µM (IC50). Take `O=C(Nc1ccc2ccccc2n1)c1ccccc1NCc1ccncc1` [Example 2.53]: the IC50 against VEGFR II (KDR) and at VEGFR I (FLT) was 0.02 µM each time. Take `O=C(Nc1cc2ccccc2cn1)c1ccccc1NCc1ccncc1` [Example 2.54]: the IC50 at VEGFR II (KDR) was 0.005 µM; against VEGFR I (FLT), 0.02 µM. The like results for `O=C(Nc1cccc2cnccc12)c1ccccc1NCc1ccncc1` [Example 2.55] were, in that order, 0.2 µM and 0.3 µM. Taken in the same sequence, the figures for `O=C(Nc1ccc2[nH]ccc2c1)c1ccccc1NCc1ccncc1` [Example 2.56] were 0.02 µM and 0.04 µM.

At VEGFR II (KDR), `O=C(Nc1cc2ccccc2cn1)c1cc(F)ccc1NCc1ccncc1` [Example 2.63] registered an IC50 of 0.0003 µM.

At VEGFR II (KDR), `COc1ccc(CNc2ccccc2C(=O)NCc2ccc(Cl)cc2)cc1` [Example 3.0, N-(4-chlorobenzyl)-N-2-(4-methoxybenzyl)anthranilamide] showed an IC50 of 3 µM. `O=C(NCCc1ccc(Cl)cc1)c1ccccc1NCc1ccc(O)cc1` [Example 4.0, N-[2-(4-chlorophenyl)ethyl]-N-2-(4-hydroxybenzyl)anthranilamide]: the results for the IC50 against VEGFR II (KDR) and at VEGFR I (FLT) were 0.2 µM and 0.5 µM, respectively.

Regarding `O=C(Nc1ccc2[nH]ncc2c1)c1ccccc1NCc1ccncc1` [Example 8.0, N-(indazol-5-yl) N2-(4-pyridylmethyl)-anthranilic acid amide], the IC50 against VEGFR II (KDR) and on VEGFR I (FLT) was 0.04 µM each time. Regarding `O=C(Nc1nc2ccccc2[nH]1)c1ccccc1NCc1ccncc1` [Example 8.2], the IC50 against VEGFR II (KDR) and against VEGFR I (FLT) was 0.2 µM each time. `O=C(Nc1ccc2ncsc2c1)c1ccccc1NCc1ccncc1` [Example 8.8]: the IC50 was found to be 0.02 µM against VEGFR II (KDR) and 0.05 µM against VEGFR I (FLT). Taken in the same sequence, the figures for `O=C(Nc1nc2ccc(OC(F)(F)F)cc2s1)c1ccccc1NCc1ccncc1` [Example 8.9] were 0.5 µM and 0.5 µM.

Turning to `O=C(Nc1ccc2cn[nH]c2c1)c1ccccc1NCc1ccncc1` [Example 8.10], the IC50 on VEGFR II (KDR) and on VEGFR I (FLT) was 0.02 µM throughout. In turn, `O=C(Nc1ccncc1)c1ccccc1NCc1ccncc1` [Example 8.11] showed an IC50 at VEGFR I (FLT) of 0.2 µM. On to `Cn1c(NC(=O)c2ccccc2NCc2ccncc2)nc2ccccc21` [Example 8.12], for which the IC50 was found to be 0.1 µM against VEGFR II (KDR) and 0.2 µM on VEGFR I (FLT). Turning to `O=C(Nc1nc2ccc(Cl)cc2s1)c1ccccc1NCc1ccncc1` [Example 8.13], the IC50 on VEGFR II (KDR) and at VEGFR I (FLT) was 0.5 µM each time.

Regarding `O=C(Nc1ccc2nc[nH]c2c1)c1ccccc1NCc1ccncc1` [Example 8.14], the IC50 at VEGFR II (KDR) was determined as 0.2 µM; at VEGFR I (FLT) it was 0.5 µM. The like results for `O=C(Nc1ccc2[nH]nnc2c1)c1ccccc1NCc1ccncc1` [Example 8.15] were, in that order, 0.2 µM and 0.2 µM.

Consider `O=C(Nc1nc2ccc(F)cc2s1)c1ccccc1NCc1ccncc1` [Example 8.16], for which the IC50 was found to be 0.3 µM at VEGFR II (KDR) and 0.2 µM against VEGFR I (FLT).

The molecule `O=C(Nc1nc2c(Cl)cccc2s1)c1ccccc1NCc1ccncc1` [Example 8.17] gave an IC50 at VEGFR II (KDR) of 0.05 µM.
